Entries after “also recorded” stand apart in the source; their conditions may differ.
Key:
[1] = tested on: postoperative pain model in adult male rats; assay: Postincisional hypersensitivity model (paw incision, withdrawal threshold to von Frey filaments); format: in vivo, rat; conditions: intrathecal (i.t.), 24 h after paw incision
Method: Animal preparation: Following Animal Care and Use Committee approval, an intrathecal (i.t.) catheter with tip in the lumbar space is inserted as previously described in adult male rats weighing 250 g (Yaksh and Rudy, Physiol Behav. 1976, 7, 1032-1036). One week following the insertion of the i.t. catheter, paw incision surgery is performed as previously described (Brennan et al., Pain 1996, 64, 493-501). Briefly, animals are anesthetized with halothane, and a 1-cm long incision is made in the plantar aspect of the left hind paw starting 0.5 cm from the edge of the heel toward the toe after sterile preparation with 70% ethanol. The plantaris muscle is elevated and incised longitudinally. The wound is closed with 2 mattress sutures of 5.0 silk. Subsequently, withdrawal threshold to von Frey filaments is determined one day after surgery (Chaplan et al., J. Neurosci. Methods, 1994, 53, 55-63). For all testing but pilot dose ranging studies, investigators are blinded to study drug administration. A cut off value of 22 g is used. […]
Single drug injection: For single drug administration, a volume containing 5 μL drug is used, followed by 10 μL of saline. […] Dose response curves are first constructed, and ED40 values for single drugs are then determined at the time of peak effect.
Drug interaction: For the combination of T-62 with morphine and NBQX, two injections are performed since the time of peak effect for morphine and NBQX is 30 min earlier than that of T-62 (T-62 is injected 30 min before drug injections). Paw withdrawal thresholds are determined before surgery, before drug injection, and 30, 60, 90, 120, 150, 180, and 210 min after the second drug injection. […] The dose response curves are then constructed for the combined drugs, and the ED40 values of the combined drugs are calculated at the time point of peak effect. […]
Data analysis: Data are presented as mean ±S.E. Withdrawal threshold data are analyzed by two-way analysis of variance followed by Fisher's LSD test. […] Isobolograms are statistically analyzed by student T test.

[2] = tested on: inflammatory and neuropathic pain; conditions: previously demonstrated (Li et al. 2003, Li et al. 2002, Pan et al. 2001); cited from earlier work
[3] = tested on: neuropathic pain model in male Sprague-Dawley rats; assay: Neuropathic pain model (Chung model, spinal nerve ligation, von Frey withdrawal threshold); format: in vivo, rat; conditions: Chung model of chronic neuropathic pain, FIG. 8
Description: Spinal Nerve Ligation: After Animal Care and Use Committee approval, male Sprague-Dawley rats (Harlan, Indianapolis, Ind., USA) weighing 180-200 g undergo anesthesia as previously described by Kim and Chung (Pain 1992, 50, 355-363). Briefly, under general anesthesia with inhalational halothane, the left L5 and L6 spinal nerves are identified through a small laminotomy and tightly ligated. Approximately one week later, an intrathecal catheter is placed under general anesthesia by insertion under direct vision of a polyethylene catheter through a small slit in the dura at the cisterna magnum, and advanced 8.5 cm such that the catheter tip resides in the lower lumbar intrathecal space. Animals are studied approximately one week later. Ligation of the lumbar spinal nerves results in a primarily unilateral increase in the sensitivity to light touch on the operated side. Sensitivity is assessed via application of calibrated von Frey filaments. The withdrawal threshold is determined using an up down method as previously described by Chaplan et al. (J. Neurosci. Methods 1994, 53, 55-63).
Experimental Design: Animals receive, at least 4 weeks after spinal nerve ligation surgery, and at least 1 week after intrathecal catheter insertion, single injections of vehicle (β-cyclodextrin) or the drug substance, using a randomized and blinded protocol. Withdrawal thresholds are determined at intervals for up to 20 hr after injection.

SMILES	anti-hypersensitivity effect (mechanical hypersensitivity) [1]	effect on inflammatory and neuropathic pain [2]	anti-allodynic effect [3]	relative potency among the three enhancers [3]
CN1CC[C@]23c4c5ccc(O)c4O[C@H]2[C@@H](O)C=C[C@H]3[C@H]1C5 [Morphine, morphine, reference compound]	reduces mechanical hypersensitivity in a time and dose dependent manner	–	–	–
NS(=O)(=O)c1cccc2c1c([N+](=O)[O-])cc1nc(O)c(O)nc12 [NBQX, 2,3-dihydroxy-6-nitro-7-sulfamoylbenzo(f)quinoxaline, reference compound]	reduces the mechanical hypersensitivity in a time and dose dependent manner	–	–	–
Nc1sc2c(c1C(=O)c1ccc(Cl)cc1)CCCC2 [T-62, (2-amino-4,5,6,7-tetrahydrobenzo[b]thiophen-3-yl)(4-chlorophenyl)methanone]	reduced mechanical hypersensitivity in a time dependent manner; also recorded: modest effect	reduce inflammatory and neuropathic pain	dose-dependent anti-allodynic effects	–
Nc1sc2c(c1C(=O)c1ccccc1)CCS2 [formula (Ib)]	–	–	dose-dependent anti-allodynic effects	–
Nc1sc2c(c1C(=O)c1cccc3ccccc13)CCC2 [formula (Ic)]	–	–	dose-dependent anti-allodynic effects	most potent enhancer of the three agents
